Legend:
[1] = test system: EGFR L858R/T790M; set-up: method as in PMID 32599930; settings: ref [9]; cited from earlier work
[2] = test system: H441 (wild-type EGFR); set-up: method as in PMID 32599930; settings: WST-8, ref [9]; cited from earlier work
[3] = test system: H3255 (EGFR L858R); set-up: method as in PMID 32599930; settings: WST-8, ref [9]; cited from earlier work
[4] = test system: H1975 (EGFR L858R/T790M); set-up: method as in PMID 32599930; settings: WST-8, ref [9]; cited from earlier work
[5] = test system: H1975 and H441 tumors; assay: Biodistribution of double tracers in tumor-bearing mice; type: in vivo, BALB/c nu/nu mice
Protocol: Six weeks old male ddY mice and four weeks old female BALB/c nu/nu mice were purchased from Japan SLC Inc. (Hamamatsu, Japan). Tumor-bearing mice were prepared by subcutaneous injection of cells suspended in 100 μL medium to the female BALB/c nu/nu mice. H1975 cells (5 × 10^6 cells) were implanted in the right shoulder, and H441 cells (3 × 10^6 cells) were implanted in the left shoulder. The tumor reached palpable size after post-inoculation 12 and 9 days for H1975 and H441, respectively.
(§1) One month later, ^125I activity was determined.

[6] = test system: H1975 (L858R/T790M double mutations EGFR); assay: Cellular uptake and blocking study, H1975; type: cell-based, human
Protocol: H1975 (1 × 10^5 cells/well), H441 (1 × 10^5 cells/well), and H3255 (2 × 10^5 cells/well) NSCLC cells were cultured in 6 well plates. Cells were incubated in medium with 10% FBS and 100 IU/mL penicillin–streptomycin at 37 °C in a humidified atmosphere with 5% CO2 for 24 h. […] The cells were dissolved by a 1.0 M NaOH aqueous solution (0.5 mL × 2). The cell lysate was transferred into a test tube. The radioactivity of ^77Br was measured by an auto well gamma counter at a 100–600 keV energy range. […] The BCA protein assay kit protocol was used to determine the protein concentration.

[7] = Determination of partition coefficient (n-octanol / 0.1 M phosphate buffer pH 7.4); type: physicochemical
Protocol: To determine the lipophilicity, the partition coefficient of [^77Br]9 was measured as described previously.

[8] = Stability assessment in PBS and murine plasma; type: in vitro ADME, mouse; settings: 1 h, 37 °C
Protocol: The stability profile of [^77Br]9 in phosphate-buffered saline (PBS) and murine plasma is presented in Supporting Information (Figure S2). [^77Br]9 was >80% intact in PBS and murine plasma after incubation for 1 h at 37 °C. Its purity decreased to 57% after 24 h of incubation.
To confirm the stability, we measured the purity of radiotracer after incubation in PBS and mouse plasma, respectively, as described previously.

[9] = Biodistribution of double tracers in normal mice; type: in vivo; settings: ddY mice
Protocol: as §1

## C=CC(=O)Nc1cc(I)cc(Nc2nc(Nc3ccc(N4CCN(C(C)=O)CC4)cc3OC)ncc2C(F)(F)F)c1 [ICO1686]
[1]
  selectivity toward EGFR L858R/T790M compared with wild-type EGFR: high selectivity
[2]
  IC50: 1840 ± 440 nM
[3]
  IC50: 500 ± 210 nM
[4]
  IC50: 200 ± 50 nM

## C=CC(=O)Nc1cccc(Nc2nc(Nc3ccc(N4CCN(C(C)=O)CC4)cc3OC)ncc2C(F)(F)F)c1 [CO-1686, rociletinib]
[1]
  selectivity toward EGFR L858R/T790M compared with wild-type EGFR: high selectivity
[2]
  IC50: 260 ± 40 nM
[3]
  IC50: 150 ± 20 nM
[4]
  IC50: 140 ± 50 nM

## C=CC(=O)Nc1cc([77Br])cc(Nc2nc(Nc3ccc(N4CCN(C(C)=O)CC4)cc3OC)ncc2C(F)(F)F)c1 [[^77Br]9]
[5]; 1 h after i.v. injection
  Biodistribution, Blood: 5.64 % ID/g
  Biodistribution, Bone: 1.93 % ID/g
  Biodistribution, Brain: 1.49 % ID/g
  Biodistribution, H441 tumor: 3.71 % ID/g
  Biodistribution, H1975 tumor: 4.51 % ID/g
  Biodistribution, Heart: 5.36 % ID/g
  Biodistribution, Kidney: 7.75 % ID/g
  Biodistribution, Large intestine: 24.33 % ID/g
  Biodistribution, Liver: 15.89 % ID/g
  Biodistribution, Lung: 11.42 % ID/g
  Biodistribution, Muscle: 3.42 % ID/g
  Biodistribution, Pancreas: 12.95 % ID/g
  Biodistribution, Small intestine: 64.52 % ID/g
  Biodistribution, Spleen: 9.19 % ID/g
  Biodistribution, Stomach: 1.31 % ID/organ
[5]; 6 h after i.v. injection
  Biodistribution, Blood: 5.35 % ID/g
  Biodistribution, Bone: 1.95 % ID/g
  Biodistribution, Brain: 1.39 % ID/g
  Biodistribution, H441 tumor: 3.30 % ID/g
  Biodistribution, H1975 tumor: 3.48 % ID/g
  Biodistribution, Heart: 2.99 % ID/g
  Biodistribution, Kidney: 4.91 % ID/g
  Biodistribution, Large intestine: 59.40 % ID/g
  Biodistribution, Liver: 6.76 % ID/g
  Biodistribution, Lung: 6.29 % ID/g
  Biodistribution, Muscle: 1.79 % ID/g
  Biodistribution, Pancreas: 4.28 % ID/g
  Biodistribution, Small intestine: 12.46 % ID/g
  Biodistribution, Spleen: 2.04 % ID/g
  Biodistribution, Stomach: 1.27 % ID/organ
[6]; 4 h of incubation
  accumulation in H1975 versus H3255 and H441: significantly higher
[6]; H1975
  reduction of uptake upon pretreatment with CO-1686: ~60%
[6]; H1975, 4 h, CO-1686 100 µM blocking
  accumulation of radioactivity with pretreatment with excess CO-1686: 56.9 % dose/mg protein
[6]; H1975, 4 h incubation
  accumulation of radioactivity (cell uptake): 136.3 % dose/mg protein
[6]; H1975, gefitinib 100 µM blocking
  effect of gefitinib on uptake: not significantly reduced
[7]
  logP: 1.72 ± 0.21
[8]; PBS
  intact in PBS: > 80%
[8]; murine plasma
  intact in murine plasma: > 80%
[9]; 10 min after i.v. injection
  Biodistribution, Blood: 3.57 % ID/g
  Biodistribution, Bone: 2.76 % ID/g
  Biodistribution, Brain: 0.45 % ID/g
  Biodistribution, Heart: 4.57 % ID/g
  Biodistribution, Kidney: 11.68 % ID/g
  Biodistribution, Large intestine: 2.83 % ID/g
  Biodistribution, Liver: 11.04 % ID/g
  Biodistribution, Lung: 8.72 % ID/g
  Biodistribution, Muscle: 3.18 % ID/g
  Biodistribution, Pancreas: 3.78 % ID/g
  Biodistribution, Small intestine: 25.38 % ID/g
  Biodistribution, Spleen: 5.11 % ID/g
  Biodistribution, Stomach: 6.17 % ID/organ
[9]; 1 h after i.v. injection
  Biodistribution, Blood: 3.24 % ID/g
  Biodistribution, Bone: 1.66 % ID/g
  Biodistribution, Brain: 0.95 % ID/g
  Biodistribution, Heart: 2.93 % ID/g
  Biodistribution, Kidney: 4.21 % ID/g
  Biodistribution, Large intestine: 3.18 % ID/g
  Biodistribution, Liver: 3.83 % ID/g
  Biodistribution, Lung: 4.97 % ID/g
  Biodistribution, Muscle: 2.02 % ID/g
  Biodistribution, Pancreas: 3.58 % ID/g
  Biodistribution, Small intestine: 26.49 % ID/g
  Biodistribution, Spleen: 4.83 % ID/g
  Biodistribution, Stomach: 7.00 % ID/organ
[9]; 4 h after i.v. injection
  Biodistribution, Blood: 3.19 % ID/g
  Biodistribution, Bone: 1.54 % ID/g
  Biodistribution, Brain: 0.74 % ID/g
  Biodistribution, Heart: 1.87 % ID/g
  Biodistribution, Kidney: 2.81 % ID/g
  Biodistribution, Large intestine: 47.73 % ID/g
  Biodistribution, Liver: 3.72 % ID/g
  Biodistribution, Lung: 5.08 % ID/g
  Biodistribution, Muscle: 1.13 % ID/g
  Biodistribution, Pancreas: 3.04 % ID/g
  Biodistribution, Small intestine: 5.23 % ID/g
  Biodistribution, Spleen: 2.92 % ID/g
  Biodistribution, Stomach: 6.68 % ID/organ
[9]; 24 h after i.v. injection
  Biodistribution, Blood: 1.99 % ID/g
  Biodistribution, Bone: 0.89 % ID/g
  Biodistribution, Brain: 0.42 % ID/g
  Biodistribution, Heart: 0.80 % ID/g
  Biodistribution, Kidney: 1.33 % ID/g
  Biodistribution, Large intestine: 0.98 % ID/g
  Biodistribution, Liver: 1.04 % ID/g
  Biodistribution, Lung: 1.62 % ID/g
  Biodistribution, Muscle: 0.47 % ID/g
  Biodistribution, Pancreas: 1.13 % ID/g
  Biodistribution, Small intestine: 1.00 % ID/g
  Biodistribution, Spleen: 1.14 % ID/g
  Biodistribution, Stomach: 2.21 % ID/organ
[9]; 24 h postinjection
  eliminated in feces: 35%

Source: paper PMC7998589, “A Radiobrominated Tyrosine Kinase Inhibitor for EGFR with L858R/T790M Mutations in Lung Carcinoma” (Pharmaceuticals, 2021)
